Experimental data as given in paper PMC9621292, “Design and synthesis of some new benzoylthioureido benzenesulfonamide derivatives and their analogues as carbonic anhydrase inhibitors” (Journal of Enzyme Inhibition and Medicinal Chemistry, 2022).

How the values were obtained:
hCA I = hCA I (Homo sapiens, UniProt P00915); assay: Stopped flow CO2 hydrase assay, hCA I
Procedure: (§1) The uncatalyzed rates were determined in the same manner and subtracted from the total observed rates. Stock solutions of inhibitor (0.1 mM) were prepared in distilled-deionized water and dilutions up to 0.01 nM were done thereafter with the assay buffer. Inhibitor and enzyme solutions were preincubated together for 15 min at room temperature prior to assay, in order to allow for the formation of the E-I complex. The inhibition constants were obtained by non-linear least-squares methods using PRISM 3 and the Cheng–Prusoff equation, as reported earlier,[29–32] and represent the mean from at least three different determinations.

hCA II = hCA II (Homo sapiens, UniProt P00918); assay: Stopped flow CO2 hydrase assay, hCA II
Procedure: as §1

hCA IX = hCA IX (Homo sapiens, UniProt Q16790); assay: Stopped flow CO2 hydrase assay, hCA IX; conditions: for Selectivity index I/IX: inhibition of hCA IX over hCA I; for Selectivity index I/IX / Selectivity index II/IX: calculated from Ki; for Selectivity index II/IX: inhibition of hCA IX over hCA II
Procedure: as §1

hCA XII = hCA XII (Homo sapiens, UniProt O43570); assay: Stopped flow CO2 hydrase assay, hCA XII; conditions: for Selectivity index I/XII: inhibition of hCA XII over hCA I; for Selectivity index I/XII / Selectivity index II/XII: calculated from Ki; for Selectivity index II/XII: inhibition of hCA XII over hCA II
Procedure: as §1

CA IX = conditions: cited from earlier work

hCA I, sequence (P00915 whole entry): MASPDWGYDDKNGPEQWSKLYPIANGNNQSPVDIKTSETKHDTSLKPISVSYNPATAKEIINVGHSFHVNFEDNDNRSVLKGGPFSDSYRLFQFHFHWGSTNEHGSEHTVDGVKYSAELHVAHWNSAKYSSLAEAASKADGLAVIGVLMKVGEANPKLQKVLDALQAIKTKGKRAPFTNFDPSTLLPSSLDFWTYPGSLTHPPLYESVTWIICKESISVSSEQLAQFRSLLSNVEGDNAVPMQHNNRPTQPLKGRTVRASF
hCA XII, sequence (O43570 25-354): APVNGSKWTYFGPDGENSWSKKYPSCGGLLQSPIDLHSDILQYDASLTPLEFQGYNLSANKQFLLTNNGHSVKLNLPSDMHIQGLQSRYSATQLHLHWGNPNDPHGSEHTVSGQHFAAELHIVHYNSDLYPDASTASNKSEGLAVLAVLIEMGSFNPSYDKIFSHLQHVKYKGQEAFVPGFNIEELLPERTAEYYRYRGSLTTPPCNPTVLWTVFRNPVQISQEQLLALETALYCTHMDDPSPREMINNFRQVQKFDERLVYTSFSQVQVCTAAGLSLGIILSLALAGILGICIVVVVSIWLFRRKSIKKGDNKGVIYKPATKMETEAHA

Row | SMILES | melting point [°C] | Ki (hCA I) [nM] | Ki (hCA II) [nM] | Ki (hCA IX) [nM] | Ki (hCA XII) [nM] | Selectivity index I/IX (hCA IX) | Selectivity index II/IX (hCA IX) | Selectivity index I/XII (hCA XII) | Selectivity index II/XII (hCA XII) | Ki (CA IX; compound A, printed in Figure 2, read-out: Ki hCA IX) [nM] | IC50 (CA IX; reported for compound A) [nM]
1 | CC(=O)Nc1cccc(C(=O)NC(=S)Nc2ccc(S(N)(=O)=O)cc2)c1 [Compound 7a, 3-Acetamido-N-((4-sulfamoylphenyl)carbamothioyl)benzamide] | 256 to 258 | 58.2 | 2.5 | 238 | > 100000 |  |  |  |  |  | 
2 | CC(C)C(=O)Nc1cccc(C(=O)NC(=S)Nc2ccc(S(N)(=O)=O)cc2)c1 [Compound 7b, 3-Isobutyramido-N-((4-sulfamoylphenyl)carbamothioyl)benzamide] | 240 to 242 | 56.3 | 2.1 | 149 | > 100000 |  |  |  |  |  | 
3 | Cc1ccc(C(=O)Nc2cccc(C(=O)NC(=S)Nc3ccc(S(N)(=O)=O)cc3)c2)cc1 [Compound 7c, 3-(4-Methylbenzamido)-N-((4-sulfamoylphenyl)carbamothioyl)benzamide] | 210 to 212 | 33 | 56.6 | 31.2 | > 100000 | 1.0 | 2.0 |  |  |  | 
4 | CC(=O)Nc1ccc(C(=O)NC(=S)Nc2ccc(S(N)(=O)=O)cc2)cc1 [Compound 7d, 4-Acetamido-N-((4-sulfamoylphenyl)carbamothioyl)benzamide] | 218 to 220 | 5450 | 701 | 168 | 97 |  |  |  |  |  | 
5 | CC(C)C(=O)Nc1ccc(C(=O)NC(=S)Nc2ccc(S(N)(=O)=O)cc2)cc1 [Compound 7e, 4-Isobutyramido-N-((4-sulfamoylphenyl)carbamothioyl)benzamide] | 248 to 250 | 333 | 39.6 | 203 | 94 |  |  |  |  |  | 
6 | Cc1ccc(C(=O)Nc2ccc(C(=O)NC(=S)Nc3ccc(S(N)(=O)=O)cc3)cc2)cc1 [Compound 7f, 4-Methyl-N-(4(((4sulfamoylphenyl)carbamothioyl)carbamoyl)phenyl) benzamide] | 228 to 230 | 43 | 39 | 30 | 106 | 1.4 | 1.3 |  |  |  | 
7 | NS(=O)(=O)c1ccc(NC(=S)NC(=O)c2ccc(Cl)cc2Cl)cc1 [Compound A] |  |  |  |  |  |  |  |  |  | 0.12 | 0.12

Now from value to compound, other results behind:

Row | melting point [°C] | Ki (hCA I) [nM] | Ki (hCA II) [nM] | Ki (hCA IX) [nM] | Ki (hCA XII) [nM] | Selectivity index I/IX (hCA IX) | Selectivity index II/IX (hCA IX) | Selectivity index I/XII (hCA XII) | Selectivity index II/XII (hCA XII) | SMILES | Ki (CA IX; compound A, printed in Figure 2, read-out: Ki hCA IX) [nM] | IC50 (CA IX; reported for compound A) [nM]
8 | 247 to 249 | 8180 | 5400 | 209 | 17 |  |  | 481 | 318 | CC(=O)Nc1cccc(C(=O)NC(=S)Nc2ccc(C(=O)O)cc2)c1 [Compound 8a, 4-(3-(3-Acetamidobenzoyl)thioureido)benzoic acid] |  | 
9 | 240 to 242 | > 100000 | > 100000 | 208 | 142 |  |  |  |  | CC(C)C(=O)Nc1cccc(C(=O)NC(=S)Nc2ccc(C(=O)O)cc2)c1 [Compound 8b, 4-(3-(3-Isobutyramidobenzoyl)thioureido)benzoic acid] |  | 
10 | 254 to 256 | 9170 | 295 | 264 | 145 |  |  |  |  | Cc1ccc(C(=O)Nc2cccc(C(=O)NC(=S)Nc3ccc(C(=O)O)cc3)c2)cc1 [Compound 8c, 4-(3-(3-(4-Methylbenzamido)benzoyl)thioureido)benzoic acid] |  | 
11 | 245 to 247 | > 100000 | 855 | 971 | > 100000 |  |  |  |  | CC(=O)Nc1ccc(C(=O)NC(=S)Nc2ccc(C(=O)O)cc2)cc1 [Compound 8d, 4-(3-(4-Acetamidobenzoyl)thioureido)benzoic acid] |  | 
12 | 240 to 242 | > 100000 | 430 | 898 | 102 | 293 |  |  |  | CC(C)C(=O)Nc1ccc(C(=O)NC(=S)Nc2ccc(C(=O)O)cc2)cc1 [Compound 8e, 4-(3-(4-Isobutyramidobenzoyl)thioureido)benzoic acid] |  | 
13 | 254 to 256 | 422 | > 100000 | 176 | 11 |  |  | 38 | >9091 | Cc1ccc(C(=O)Nc2ccc(C(=O)NC(=S)Nc3ccc(C(=O)O)cc3)cc2)cc1 [Compound 8f, 4-(3-(4–(4-Methylbenzamido)benzoyl)thioureido)benzoic acid] |  | 
14 | 242 to 244 | 9040 | > 100000 | 2130 | > 100000 |  |  |  |  | CCOC(=O)c1ccc(NC(=S)NC(=O)c2cccc(NC(C)=O)c2)cc1 [Compound 9a, Ethyl 4–(3-(3-acetamidobenzoyl)thioureido)benzoate] |  | 
15 | 245 to 247 | 8660 | 57.1 | 300 | > 100000 |  |  |  |  | CCOC(=O)c1ccc(NC(=S)NC(=O)c2cccc(NC(=O)C(C)C)c2)cc1 [Compound 9b, Ethyl 4–(3-(3-isobutyramidobenzoyl)thioureido)benzoate] |  | 
16 | 236 to 238 | > 100000 | 546 | 251 | > 100000 |  |  |  |  | CCOC(=O)c1ccc(NC(=S)NC(=O)c2cccc(NC(=O)c3ccc(C)cc3)c2)cc1 [Compound 9c, Ethyl 4–(3-(3–(4-methylbenzamido)benzoyl)thioureido)benzoate] |  | 
17 | 237 to 239 | > 100000 | > 100000 | 1630 | > 100000 |  |  |  |  | CCOC(=O)c1ccc(NC(=S)NC(=O)c2ccc(NC(C)=O)cc2)cc1 [Compound 9d, Ethyl 4–(3-(4-acetamidobenzoyl)thioureido)benzoate] |  | 
18 | 245 to 247 | 8500 | 73.2 | 29 | 202 | 293 | 2.5 |  |  | CCOC(=O)c1ccc(NC(=S)NC(=O)c2ccc(NC(=O)C(C)C)cc2)cc1 [Compound 9e, Ethyl 4–(3-(4-isobutyramidobenzoyl)thioureido)benzoate] |  | 
19 | 237 to 239 | > 100000 | > 100000 | 1580 | 155 |  |  |  |  | CCOC(=O)c1ccc(NC(=S)NC(=O)c2ccc(NC(=O)c3ccc(C)cc3)cc2)cc1 [Compound 9f, Ethyl 4–(3-(4–(4-methylbenzamido)benzoyl)thioureido)benzoate] |  | 
